Test results reported in publication PMC6272887, “Discovery of Potent c-MET Inhibitors with New Scaffold Having Different Quinazoline, Pyridine and Tetrahydro-Pyridothienopyrimidine Headgroups” (Molecules, 2016).
Like-named read-outs stand apart in the source and are kept apart here.

Legend:
c-MET = biological target: T1, c-MET (Homo sapiens, UniProt P08581); assay: In vitro kinase assay (HTScan MET Kinase Assay Kit, colorimetric ELISA); assay type: biochemical; conditions: ATP 10 µM; three independent determinations; read-out: Enzymatic Inhibition (IC50, µM) c-MET
T1 construct: purchased Cell Signaling Technology, Inc
T1 sequence (P08581 25-1390): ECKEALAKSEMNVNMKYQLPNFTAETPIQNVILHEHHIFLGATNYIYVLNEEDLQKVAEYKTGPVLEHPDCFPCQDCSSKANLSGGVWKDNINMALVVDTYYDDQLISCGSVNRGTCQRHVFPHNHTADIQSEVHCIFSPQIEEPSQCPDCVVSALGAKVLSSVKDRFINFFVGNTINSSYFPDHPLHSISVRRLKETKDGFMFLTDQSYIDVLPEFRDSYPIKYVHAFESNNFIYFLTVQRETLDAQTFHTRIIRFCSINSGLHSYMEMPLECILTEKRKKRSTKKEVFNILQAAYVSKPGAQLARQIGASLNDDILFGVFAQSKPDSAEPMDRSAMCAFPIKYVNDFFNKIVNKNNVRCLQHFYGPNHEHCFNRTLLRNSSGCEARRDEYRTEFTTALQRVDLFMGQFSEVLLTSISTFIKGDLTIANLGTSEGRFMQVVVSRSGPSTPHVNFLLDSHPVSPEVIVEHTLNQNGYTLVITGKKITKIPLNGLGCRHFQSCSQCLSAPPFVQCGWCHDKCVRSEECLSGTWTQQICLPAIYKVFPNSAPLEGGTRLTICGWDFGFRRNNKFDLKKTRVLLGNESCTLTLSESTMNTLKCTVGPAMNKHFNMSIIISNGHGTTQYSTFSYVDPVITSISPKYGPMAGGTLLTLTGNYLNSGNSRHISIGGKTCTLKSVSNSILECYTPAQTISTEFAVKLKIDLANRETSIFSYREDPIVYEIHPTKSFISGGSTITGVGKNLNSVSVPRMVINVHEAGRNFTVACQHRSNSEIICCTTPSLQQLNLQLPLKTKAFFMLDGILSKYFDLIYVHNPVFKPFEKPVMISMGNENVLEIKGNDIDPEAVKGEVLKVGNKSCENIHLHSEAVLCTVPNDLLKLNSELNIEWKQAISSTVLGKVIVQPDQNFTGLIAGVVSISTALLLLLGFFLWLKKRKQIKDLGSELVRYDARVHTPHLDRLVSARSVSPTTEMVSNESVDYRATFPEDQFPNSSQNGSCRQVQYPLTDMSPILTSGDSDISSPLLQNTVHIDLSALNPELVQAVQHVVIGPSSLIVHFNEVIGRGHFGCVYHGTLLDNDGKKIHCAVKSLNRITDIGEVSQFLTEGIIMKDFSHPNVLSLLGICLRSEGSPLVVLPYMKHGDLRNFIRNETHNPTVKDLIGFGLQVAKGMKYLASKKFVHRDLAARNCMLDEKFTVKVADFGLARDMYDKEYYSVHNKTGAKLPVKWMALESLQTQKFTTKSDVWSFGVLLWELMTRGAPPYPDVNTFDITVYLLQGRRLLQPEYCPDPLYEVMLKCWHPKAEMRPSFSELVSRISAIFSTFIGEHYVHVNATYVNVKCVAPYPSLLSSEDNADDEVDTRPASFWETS
Experimental: In vitro kinase inhibitory ability was determined using HTScan MET Kinase Assay Kit, HTScan VEGF Receptor 2 Kinase Assay Kit, HTScan c-Kit Kinase Assay Kit, HTScan PDGF Receptor β Kinase Assay Kit and HTScan EGFR Kinase Assay Kit(purchased from Cell Signaling Technology, Inc. Danvers, MA, USA) by colorimetric ELISA assay according to the manufacturer’s instructions. Briefly, reaction cocktail containing recombinant human MET kinase or other kinases were incubated with various concentrations of tested compounds or DMSO (0.1%) for 5 min at room temperature, and then ATP/substrate peptide cocktail was added to the pre-incubated reaction cocktail. After incubation at room temperature for 30 min, the reaction was stopped and transferred to a 96-wellstreptavidin-coated plate, and incubated for 1 h at room temperature. Primary antibody (phosphorylated tyrosine monoclonal antibody (pTyr-100), 1:1000 in PBS/T with 1% bovine serum albumin (BSA)) was added into per well until the wells were washed thrice with PBS/T. After incubated at room temperature for 1 h, phosphorylation of the substrate was monitored with HRP-labeled anti-mouse IgG antibody (1:500 in PBS/T with 1% BSA), followed by a chromogenic reaction. Finally, the kinase assay was detected at 450 nm with microplate reader. The reaction processed with only DMSO (0.1%) served as a vehicle control. […] The kinase assay was performed thrice independently.

[1] = test system: Hep-G2 (human liver cancer); assay: Cell proliferative assay (MTT), Hep-G2; assay type: cell-based; conditions: read-out: Proliferative Inhibition (IC50, µM) Hep-G2
Experimental: (§1) The anti-proliferative activities of synthesized compounds against HeLa, Hep-G2 and MCF-7 cells were evaluated by MTT assay. HeLa cells were grown to log phase in RPMI 1640 medium supplemented with 10% fetal bovine serum. Hep-G2 and MCF-7 cells were grown to log phase in DMEM medium supplemented with 10% fetal bovine serum. After diluting to […] with the complete medium, 100 µL of the obtained cell suspension was added to each well of 96-well culture plates. The subsequent incubation was permitted at 37 °C, 5% CO2 atmosphere for 48 h before the anti-proliferative assessments. Tested samples at pre-set concentrations were added to 6 wells. Before the anti-proliferative assessments, 20 µL of PBS containing 2.5 mg∙mL^−1 of MTT was added to each well. Four h later, 100 µL extraction solution (DMSO) was added to each well and the optical density was measured at a wavelength of 570 nm on an ELISA microplate reader.

[2] = test system: MCF-7 (human breast cancer); assay: Cell proliferative assay (MTT), MCF-7; assay type: cell-based; conditions: MCF-7 cells, read-out: Proliferative Inhibition (IC50, µM) MCF-7
Experimental: as §1

[3] = test system: HeLa (human cervical carcinoma); assay: Cell proliferative assay (MTT), HeLa; assay type: cell-based; conditions: HeLa cells, read-out: Proliferative Inhibition (IC50, µM) HeLa
Experimental: as §1

[4] = Homo sapiens, HepG2, Hep-G2 cells

CC(C)(C)OC(=O)N1CCc2c(sc3ncnc(Oc4cccc(C(=O)Nc5cc(C(C)(C)C)nn5-c5ccccc5)c4)c23)C1 [Compound 9c, tert-butyl 4-{3-((3-(tert-butyl)-1-phenyl-1H-pyrazol-5-yl)carbamoyl)phenoxy}-5,6-dihydropyrido(4’,3’:4,5)thieno(2,3-d)pyrimidine-7(8H)-carboxylate]
IC50 (c-MET): > 10 µM | IC50 [1, 4]: > 100 µM | IC50 ([2]; Homo sapiens, MCF7, MTT assay): 66.7 ± 1.5 µM | IC50 ([3]; Homo sapiens, HeLa): > 100 µM

CC(C)(C)OC(=O)N1CCc2c(sc3ncnc(Oc4ccc(NC(=O)C(C)(C)C(=O)Nc5ccc(F)cc5)cc4F)c23)C1 [Compound 13g, tert-butyl-4-{2-fluoro-4-(3-((4-fluorophenyl)amino)-2,2-dimethyl-3-oxopropanamido)phenoxy}-5,6-dihydropyrido(4’,3’:4,5)thieno(2,3-d)pyrimidine-7(8H)-carboxylate]
melting point: 126 to 128 °C | IC50 (c-MET): 9.4 ± 0.6 µM | IC50 [1, 4]: > 100 µM | IC50 ([2]; Homo sapiens, MCF7, MTT assay): 27.7 ± 0.35 µM | IC50 ([3]; Homo sapiens, HeLa): > 100 µM

N-(4-fluorophenyl)-N-{4-((2-(methylcarbamoyl)pyridin-4-yl)oxy)phenyl}cyclopropane-1,1-dicarboxamide [Compound 13e]
IC50 (c-MET): > 10 µM | IC50 ([1]; Hep-G2 cells): > 100 µM | IC50 ([2]; MTT assay): > 100 µM | IC50 [3]: 66.7 ± 0.36 µM

COc1ccc(NC(=O)c2cccc(Oc3ncnc4cc(OC)c(OC)cc34)c2)cc1OC [Compound 11a, N-(3,4-dimethoxyphenyl)-3-((6,7-dimethoxyquinazolin-4-yl)oxy)benzamide]
melting point: 220 to 222 °C | IC50 (c-MET): 0.52 ± 0.05 µM | IC50 [1, 4]: > 100 µM | IC50 ([2]; Homo sapiens, MCF7, MTT assay): 3.4 ± 0.21 µM | IC50 ([3]; Homo sapiens, HeLa): 14.1 ± 0.16 µM

CC(C)(C)OC(=O)N1CCc2c(sc3ncnc(Oc4cccc(C(=O)Nc5ccc(Cl)cc5)c4)c23)C1 [Compound 11h, tert-butyl 4-{3-((4-chlorophenyl)carbamoyl)phenoxy}-5,6-dihydropyrido(4’,3’:4,5)thieno(2,3-d)pyrimidine-7(8H)-carboxylate]
IC50 (c-MET): 0.25 ± 0.08 µM | IC50 [1, 4]: 61.9 ± 0.23 µM | IC50 ([2]; Homo sapiens, MCF7, MTT assay): 22.9 ± 0.22 µM | IC50 ([3]; Homo sapiens, HeLa): 10.7 ± 0.18 µM

COc1cc2ncnc(Oc3cccc(C(=O)Nc4ccc(F)cc4)c3)c2cc1OC [Compound 11c, 3-((6,7-dimethoxyquinazolin-4-yl)oxy)-N-(4-fluorophenyl)benzamide]
melting point: 178 to 180 °C | IC50 (c-MET): 0.08 ± 0.04 µM | IC50 [1, 4]: 10.1 ± 0.2 µM | IC50 ([2]; Homo sapiens, MCF7, MTT assay): 5.2 ± 0.36 µM | IC50 ([3]; Homo sapiens, HeLa): 0.9 ± 0.12 µM

COc1cc2ncnc(Oc3ccc(NC(=O)C(C)(C)C(=O)Nc4ccc(F)cc4)cc3F)c2cc1OC [Compound 13a, N^1-{4-((6,7-dimethoxyquinazolin-4-yl)oxy)-3-fluorophenyl}-N^3-(4-fluorophenyl)-2,2-dimethylmalonamide]
melting point: 210 to 212 °C | IC50 (c-MET): 7.1 ± 0.18 µM | IC50 [1, 4]: > 100 µM | IC50 ([2]; Homo sapiens, MCF7, MTT assay): 71.8 ± 0.31 µM | IC50 ([3]; Homo sapiens, HeLa): > 100 µM

COc1cc2ncnc(Oc3ccc(NC(=O)C4(C(=O)Nc5ccc(F)cc5)CCC4)cc3F)c2cc1OC [Compound 13c, N-{4-((6,7-dimethoxyquinazolin-4-yl)oxy)-3-fluorophenyl}-N-(4-fluorophenyl)cyclobutane-1,1-dicarboxamide]
melting point: 250 to 252 °C | IC50 (c-MET): 1.2 ± 0.06 µM | IC50 [1, 4]: 49.1 ± 0.3 µM | IC50 ([2]; Homo sapiens, MCF7, MTT assay): > 100 µM | IC50 ([3]; Homo sapiens, HeLa): 50.1 ± 0.25 µM

COc1cc2ncnc(Oc3cccc(C(=O)Nc4ccc(Cl)cc4)c3)c2cc1OC [Compound 11b, N-(4-chlorophenyl)-3-((6,7-dimethoxyquinazolin-4-yl)oxy)benzamide]
melting point: 203 to 205 °C | IC50 (c-MET): 0.12 ± 0.03 µM | IC50 [1, 4]: 9.2 ± 0.17 µM | IC50 ([2]; Homo sapiens, MCF7, MTT assay): 7.8 ± 0.14 µM | IC50 ([3]; Homo sapiens, HeLa): 1.8 ± 0.06 µM

N-(4-fluorophenyl)-N-{4-((2-(methylcarbamoyl)pyridin-4-yl)oxy)phenyl}cyclobutane-1,1-dicarboxamide [Compound 13f]
IC50 (c-MET): > 10 µM | IC50 ([1]; Hep-G2 cells): > 100 µM | IC50 ([2]; MTT assay): > 100 µM | IC50 [3]: 87.8 ± 0.13 µM

CNC(=O)c1cc(Oc2cccc(C(=O)Nc3cc(C(C)(C)C)nn3-c3ccccc3)c2)ccn1 [Compound 9b]
IC50 (c-MET): > 10 µM | IC50 [1, 4]: > 100 µM | IC50 ([2]; Homo sapiens, MCF7, MTT assay): 59.7 ± 1.3 µM | IC50 ([3]; Homo sapiens, HeLa): > 100 µM

CNC(=O)c1cc(Oc2cccc(C(=O)Nc3ccc(F)cc3)c2)ccn1 [Compound 11f, 4-{3-((4-fluorophenyl)carbamoyl)phenoxy}-N-methylpicolinamide]
IC50 (c-MET): 5.3 ± 0.05 µM | IC50 [1, 4]: > 100 µM | IC50 ([2]; Homo sapiens, MCF7, MTT assay): 42.1 ± 0.27 µM | IC50 ([3]; Homo sapiens, HeLa): 27.8 ± 0.34 µM

CNC(=O)c1cc(Oc2cccc(C(=O)Nc3ccc(Cl)cc3)c2)ccn1 [Compound 11e, 4-{3-((4-chlorophenyl)carbamoyl)phenoxy}-N-methylpicolinamide]
IC50 (c-MET): 7.4 ± 0.07 µM | IC50 [1, 4]: > 100 µM | IC50 ([2]; Homo sapiens, MCF7, MTT assay): 34.5 ± 0.36 µM | IC50 ([3]; Homo sapiens, HeLa): 26.4 ± 0.2 µM

COc1cc2ncnc(Oc3cccc(C(=O)Nc4cc(C(C)(C)C)nn4-c4ccccc4)c3)c2cc1OC [Compound 9a, N-(3-(tert-butyl)-1-phenyl-1H-pyrazol-5-yl)-3-((6,7-dimethoxyquinazolin-4-yl)oxy)benzamide]
melting point: 217 to 219 °C | IC50 (c-MET): 8.4 ± 0.6 µM | IC50 [1, 4]: 38.5 ± 1.3 µM | IC50 ([2]; Homo sapiens, MCF7, MTT assay): 46.1 ± 0.8 µM | IC50 ([3]; Homo sapiens, HeLa): 28.7 ± 1.1 µM

CC(C)(C)OC(=O)N1CCc2c(sc3ncnc(Oc4ccc(NC(=O)C5(C(=O)Nc6ccc(F)cc6)CCC5)cc4F)c23)C1 [Compound 13i, tert-butyl-4-{2-fluoro-4-(1-((4-fluorophenyl)carbamoyl)cyclobutanecarboxamido)phenoxy}-5,6-dihydropyrido(4’,3’:4,5)thieno(2,3-d)pyrimidine-7(8H)-carboxylate]
melting point: 101 to 103 °C | IC50 (c-MET): 0.25 ± 0.08 µM | IC50 [1, 4]: 43.2 ± 0.26 µM | IC50 ([2]; Homo sapiens, MCF7, MTT assay): 21.7 ± 0.16 µM | IC50 ([3]; Homo sapiens, HeLa): 4.2 ± 0.31 µM

CNC(=O)c1cc(Oc2ccc(NC(=O)C(C)(C)C(=O)Nc3ccc(F)cc3)cc2)ccn1 [Compound 13d, N^1-(4-fluorophenyl)-2,2-dimethyl-N^3-{4-((2-(methylcarbamoyl)pyridin-4-yl)oxy]phenyl}malonamide]
melting point: 113 to 115 °C | IC50 (c-MET): > 10 µM | IC50 [1, 4]: > 100 µM | IC50 ([2]; Homo sapiens, MCF7, MTT assay): 91.2 ± 0.26 µM | IC50 ([3]; Homo sapiens, HeLa): > 100 µM

CC(C)(C)OC(=O)N1CCc2c(sc3ncnc(Oc4cccc(C(=O)Nc5ccc(F)cc5)c4)c23)C1 [Compound 11i, tert-butyl 4-{3-((4-fluorophenyl)carbamoyl)phenoxy}-5,6-dihydropyrido(4’,3’:4,5)thieno(2,3-d)pyrimidine-7(8H)-carboxylate]
IC50 (c-MET): 0.05 ± 0.02 µM | IC50 [1, 4]: 23.2 ± 0.36 µM | IC50 ([2]; Homo sapiens, MCF7, MTT assay): 1.1 ± 0.31 µM | IC50 ([3]; Homo sapiens, HeLa): 1.5 ± 0.11 µM

CNC(=O)c1cc(Oc2cccc(C(=O)Nc3ccc(OC)c(OC)c3)c2)ccn1 [Compound 11d, 4-{3-((3,4-dimethoxyphenyl)carbamoyl)phenoxy}-N-methylpicolinamide]
IC50 (c-MET): > 10 µM | IC50 [1, 4]: > 100 µM | IC50 ([2]; Homo sapiens, MCF7, MTT assay): 71.2 ± 0.34 µM | IC50 ([3]; Homo sapiens, HeLa): > 100 µM

COc1ccc(NC(=O)c2cccc(Oc3ncnc4sc5c(c34)CCN(C(=O)OC(C)(C)C)C5)c2)cc1OC [Compound 11g, tert-butyl 4-{3-((3,4-dimethoxyphenyl)carbamoyl)phenoxy}-5,6-dihydropyrido(4’,3’:4,5)thieno(2,3-d)pyrimidine-7(8H)-carboxylate]
melting point: 103 to 105 °C | IC50 (c-MET): 1.4 ± 0.1 µM | IC50 [1, 4]: > 100 µM | IC50 ([2]; Homo sapiens, MCF7, MTT assay): 17.3 ± 0.38 µM | IC50 ([3]; Homo sapiens, HeLa): 4.4 ± 0.26 µM
